Assay results reported in patent US8546383B2, “Chiral fused [1,2]imidazo[4,5-c] ring compounds” (3M Innovative Properties Company, priority 2004, dated 2013).
Where a name gives a salt, the structure may show the parent alone.

First: CC(C)(O)[C@@H]1COCc2nc3c(N)nc4ccccc4c3n21 (as salt: hydrochloride) [Example 31]
Second: CC(C)(O)[C@H]1COCc2nc3c(N)nc4ccccc4c3n21 [Example 13, 2-[(11R)-6-Amino-10,11-dihydro-8H-[1,4]oxazino[4′,3′:1,2]imidazo[4,5-c]quinolin-11-yl]propan-2-ol]
The melting point of the first is higher: 218 to 219 °C for the first, 216 to 217 °C for the second.

`Nc1nc2ccccc2c2c1nc1n2[C@H](Cc2ccccc2)COC1` (hydrate or solvate) [Example 29] and `Nc1nc2ccccc2c2c1nc1n2[C@@H](Cc2ccccc2)COC1` [Example 10, (11S)-11-Benzyl-10,11-dihydro-8H-[1,4]oxazino[4′,3′:1,2]imidazo[4,5-c]quinolin-6-amine] fall in the same range of melting point: 170 to 177 °C for the first, 170 to 177 °C for the second.

Compared with `CC1COCc2nc3c(N)nc4ccc(OCc5ccccc5)cc4c3n21` (stereo in doubt) [Example 18, (11R)-2-(Benzyloxy)-11-methyl-10,11-dihydro-8H-[1,4]oxazino[4′,3′:1,2]imidazo[4,5-c]quinolin-6-amine], `C[C@H]1COCc2nc3c(N)nc4cc(OCc5ccccc5)ccc4c3n21` [Example 7, (11S)-3-(Benzyloxy)-11-methyl-10,11-dihydro-8H-[1,4]oxazino[4′,3′:1,2]imidazo[4,5-c]quinolin-6-amine] is higher in melting point: 100 to 120 °C for the first, 218 to 220 °C for the second.

Compared with `CC(C)[C@H]1COCc2nc3c(N)nc4ccccc4c3n21` [Example 1, (11S)-1′-Isopropyl-10,11-dihydro-8H-[1,4]oxazino[4′,3′:1,2]imidazo[4,5-c]quinolin-6-amine], `CC(C)[C@@H]1COCc2nc3c(N)nc4ccccc4c3n21` [Example 25] is lower in melting point: 249 to 250 °C for the first, 248 to 249 °C for the second.

Compared with `CC(C)[C@H]1COCc2nc3c(N)nc4c(c3n21)CCCC4` [Example 2, (11S)-11-Isopropyl-2,3,4,8,10,11-hexahydro-1H-[1,4]oxazino[4′,3′:1,2]imidazo[4,5-c]quinolin-6-amine], `C[C@H]1COCc2nc3c(N)nc4c(c3n21)CCCC4` [Example 6, (11S)-11-Methyl-2,3,4,8,10,11-hexahydro-1H-[1,4]oxazino[4′,3′:1,2]imidazo[4,5-c]quinolin-6-amine] is higher in melting point: 158 to 160 °C for the first, 209 to 211 °C for the second.

Compared with `CC(C)[C@H]1COCc2nc3c(N)nc4cc(OCc5ccccc5)ccc4c3n21` [Example 3, (11S)-3-(Benzyloxy)-11-isopropyl-10,11-dihydro-8H-[1,4]oxazino[4′,3′:1,2]imidazo[4,5-c]quinolin-6-amine], `CC(C)[C@H]1COCc2nc3c(N)nc4ccc(OCc5ccccc5)cc4c3n21` [Example 19, (11S)-2-(Benzyloxy)-11-isopropyl-10,11-dihydro-8H-[1,4]oxazino[4′,3′:1,2]imidazo[4,5-c]quinolin-6-amine] is lower in melting point: 227 to 229 °C for the first, 139 to 141 °C for the second.

First: CC(C)[C@H]1COCc2nc3c(N)nc4cc(O)ccc4c3n21 [Example 4, (11S)-6-Amino-11-isopropyl-10,11-dihydro-8H-[1,4]oxazino[4′,3′:1,2]imidazo[4,5-c]quinolin-3-ol]
Second: CC(C)[C@H]1COCc2nc3c(N)nc4ccc(O)cc4c3n21 [Example 20, (11S)-6-Amino-11-isopropyl-10,11-dihydro-8H-[1,4]oxazino[4′,3′:1,2]imidazo[4,5-c]quinolin-2-ol]
The melting point of the first is higher: 210 to 215 °C for the first, 208 to 210 °C for the second.

`C[C@H]1COCc2nc3c(N)nc4ccccc4c3n21` [Example 5, (11S)-11-Methyl-10,11-dihydro-8H-[1,4]oxazino[4′,3′:1,2]imidazo[4,5-c]quinolin-6-amine] and `C[C@@H]1COCc2nc3c(N)nc4ccccc4c3n21` [Example 26] fall in the same range of melting point: 280 to 282 °C for the first, 280 to 282 °C for the second.

`Nc1nc2ccccc2c2c1nc1n2[C@@H](c2ccccc2)COC1` [Example 9, (11S)-11-Phenyl-10,11-dihydro-8H-[1,4]oxazino[4′,3′:1,2]imidazo[4,5-c]quinolin-6-amine] and `Nc1nc2ccccc2c2c1nc1n2[C@H](c2ccccc2)COC1` [Example 28] fall in the same range of melting point: 284 to 286 °C for the first, 284 to 286 °C for the second.

`CC(C)(F)[C@H]1COCc2nc3c(N)nc4ccccc4c3n21` [Example 11, (11R)-11-(1-Fluoro-1-methylethyl)-10,11-dihydro-8H-[1,4]oxazino[4′,3′:1,2]imidazo[4,5-c]quinolin-6-amine] and `CC(C)(F)[C@@H]1COCc2nc3c(N)nc4ccccc4c3n21` [Example 30] fall in the same range of melting point: 242 to 244 °C for the first, 242 to 244 °C for the second.

Compared with `CC(C)(F)[C@H]1COCc2nc3c(N)nc4c(c3n21)CCCC4` [Example 12, (11R)-11-(1-Fluoro-1-methylethyl)-2,3,4,8,10,11-hexahydro-1H-[1,4]oxazino[4′,3′:1,2]imidazo[4,5-c]quinolin-6-amine], `C[C@@H]1COCc2nc3c(N)nc4c(c3n21)CCCC4` [Example 27] is higher in melting point: 195.5 to 197 °C for the first, 209 to 211 °C for the second.

First: CC(C)[C@H]1COCc2nc3c(N)nc4cccnc4c3n21 [Example 14, (11S)-11-Isopropyl-10,11-dihydro-8H-[1,4]oxazino[4′,3′:1,2]imidazo[4,5-c][1,5]naphthyridin-6-amine]
Second: C[C@H]1COCc2nc3c(N)nc4cccnc4c3n21 [Example 15, (11S)-11-Methyl-10,11-dihydro-8H-[1,4]oxazino[4′,3′:1,2]imidazo[4,5-c][1,5]naphthyridin-6-amine]
The melting point of the first is lower: 194 to 196 °C for the first, 240 to 242 °C for the second.

First: CC(C)(F)[C@H]1COCc2nc3c(N)nc4cccnc4c3n21 [Example 16, (11R)-11-(1-Fluoro-1-methylethyl)-10,11-dihydro-8H-[1,4]oxazino[4′,3′:1,2]imidazo[4,5-c][1,5]naphthyridin-6-amine]
Second: CC(C)(O)[C@H]1COCc2nc3c(N)nc4cccnc4c3n21 [Example 33, 2-[(11R)-6-Amino-10,11-dihydro-8H-[1,4]oxazino[4′,3′:1,2]imidazo[4,5-c]-1,5-naphthyridin-11-yl]propan-2-ol]
The melting point of the first is lower: 192 to 194 °C for the first, 242 to 246 °C for the second.

First: CC(C)(F)[C@H]1COCc2nc3c(N)nc4cc(O)ccc4c3n21 [Example 17, (11R)-6-Amino-11-(1-fluoro-1-methylethyl)-10,11-dihydro-8H-[1,4]oxazino[4′,3′:1,2]imidazo[4,5-c]quinolin-3-ol]
Second: C[C@H]1COCc2nc3c(N)nc4ccc(O)cc4c3n21 [Example 21, (11S)-6-Amino-11-methyl-10,11-dihydro-8H-[1,4]oxazino[4′,3′:1,2]imidazo[4,5-c]quinolin-2-ol]
The melting point of the first is lower: 219 to 221 °C for the first, 262 to 264 °C for the second.

First: CC1CCOCc2nc3c(N)nc4cc(Br)ccc4c3n21 (centres unmarked) [Example 22, 3-Bromo-12-methyl-11,12-dihydro-8H,10H-[1,4]oxazepino[4′,3′:1,2]imidazo[4,5-c]quinolin-6-amine]
Second: C[C@@H](O)[C@H]1COCc2nc3c(N)nc4ccccc4c3n21 [Example 39, (1R)-1-[(11R)-6-Amino-10,11-dihydro-8H-[1,4]oxazino[4′,3′:1,2]imidazo[4,5-c]quinolin-11-yl]ethanol]
The melting point of the first is higher: 247 to 248 °C for the first, 215.3 to 218.6 °C for the second.

`C[C@H]1CN(S(C)(=O)=O)Cc2nc3c(N)nc4ccccc4c3n21` [Example 23, (11S)-11-Methyl-9-(methylsulfonyl)-8,9,10,11-tetrahydropyrazino[1′,2′:1,2]imidazo[4,5-c]quinolin-6-amine] and `C[C@@H]1CN(S(C)(=O)=O)Cc2nc3c(N)nc4ccccc4c3n21` [Example 32, (11R)-11-Methyl-9-(methylsulfonyl)-8,9,10,11-tetrahydropyrazino[1′,2′:1,2]imidazo[4,5-c]quinolin-6-amine] fall in the same range of melting point: 258 to 261 °C for the first, 258 to 261 °C for the second.

Compared with `Nc1nc2ccccc2c2c1nc1n2[C@@H](COCc2ccccc2)COC1` [Example 34, (11S)-11-[(Benzyloxy)methyl]-10,11-dihydro-8H-[1,4]oxazino[4′,3′:1,2]imidazo[4,5-c]quinolin-6-amine], `C[C@@H](OCc1ccccc1)[C@H]1COCc2nc3c(N)nc4ccccc4c3n21` [Example 38, (11R)-11-[(1R)-1-(benzyloxy)ethyl]-10,11-dihydro-8H-[1,4]oxazino[4′,3′:1,2]imidazo[4,5-c]quinolin-6-amine] is higher in melting point: 184.6 to 186.2 °C for the first, 189 to 190.8 °C for the second.

First: Nc1nc2ccccc2c2c1nc1n2[C@@H](CO)COC1 [Example 35, [(11S)-6-Amino-10,11-dihydro-8H-[1,4]oxazino[4′,3′:1,2]imidazo[4,5-c]quinolin-11-yl]methanol]
Second: Nc1nc2ccccc2c2c1nc1n2[C@@H](CCl)COC1 [Example 36, (11R)-11-(Chloromethyl)-10,11-dihydro-8H-[1,4]oxazino[4′,3′:1,2]imidazo[4,5-c]quinolin-6-amine]
The melting point of the first is higher: 238.6 to 239.8 °C for the first, 230 to 232 °C for the second.

First: CN1CCN(C[C@H]2COCc3nc4c(N)nc5ccccc5c4n32)CC1 [Example 37, (11S)-11-[(4-Methylpiperazin-1-yl)methyl]-10,11-dihydro-8H-[1,4]oxazino[4′,3′:1,2]imidazo[4,5-c]quinolin-6-amine]
Second: C[C@H](O)[C@H]1COCc2nc3c(N)nc4ccccc4c3n21 [Example 41, (1S)-1-[(11R)-6-amino-10,11-dihydro-8H-[1,4]oxazino[4′,3′:1,2]imidazo[4,5-c]quinolin-1′-yl]ethanol]
The melting point of the first is lower: 187 to 190 °C for the first, 207.6 to 208.7 °C for the second.

`C[C@H](OCc1ccccc1)[C@H]1COCc2nc3c(N)nc4ccccc4c3n21` [Example 40, (11R)-11-[(1S)-1-(benzyloxy)ethyl]-10,11-dihydro-8H-[1,4]oxazino[4′,3′:1,2]imidazo[4,5-c]quinolin-6-amine] gave a melting point of 86.6 to 89.7 °C.

In the case of `Nc1nc2ccccc2c2c1nc1n2[C@@H](Cc2ccc(O)cc2)COC1` (as salt: hydrochloride) [Example 48, 4-{[(11S)-6-Amino-10,11-dihydro-8H-[1,4]oxazino[4′,3′:1,2]imidazo[4,5-c]quinolin-11-yl]methyl}phenol], the melting point is reported as > 240 °C (dec.).
In the case of `C[C@H]1COCc2nc3c(N)nc4cc(O)ccc4c3n21` [Example 8, (11S)-6-Amino-11-methyl-10,11-dihydro-8H-[1,4]oxazino[4′,3′:1,2]imidazo[4,5-c]quinolin-3-ol], the melting point is reported as greater than 250 °C.
